Reference: US8765669B2, “Glycosylated GLP-1 peptide” (Glytech, Inc., priority 2008, dated 2014)

Legend:
C57BL/6JJcl mice = experiment: Oral Glucose Tolerance Test (OGTT); type: in vivo
Experimental: After 30 minutes, a glucose solution was orally administered at a dose of 1 mg/g. Blood was collected from the orbits before the glucose administration and 30 minutes, 60 minutes and 120 minutes after the glucose administration. Blood-sugar levels were measured using ACCU-CHEK Aviva (Roche Diagnostics). In the drawings below, for example, “26,34Cys GLP-1-disialo”, which is an oligosaccharide chain added GLP-1 peptide wherein amino acids at positions 26 and 34 of GLP-1 are each substituted with disialo oligosaccharide chain added Cys, is referred to as “C26,C34”, if necessary. The same holds true for other oligosaccharide chains and amino acid sites.
Next, 18,36Cys GLP-1-disialo and GLP-1 were evaluated by OGTT using doses of 1/10 (0.9 nmol/kg) and 9 nmol/kg, respectively, and compared.

[1] = target: T1, DPP-IV (dipeptidyl peptidase IV from porcine kidney) (Sus scrofa, UniProt P22411); experiment: Test of resistance to dipeptidyl peptidase IV (DPP-IV); type: in vitro ADME; settings: half-life (t1/2) in DPP-IV solution at 37° C., GLP-1 of Comparative Example 1 defined as standard (=1)
T1 construct: dipeptidyl peptidase IV from porcine kidney, product of SIGMA; purchased SIGMA; host or cells: porcine kidney (tissue-derived enzyme)
T1 sequence (P22411 whole entry): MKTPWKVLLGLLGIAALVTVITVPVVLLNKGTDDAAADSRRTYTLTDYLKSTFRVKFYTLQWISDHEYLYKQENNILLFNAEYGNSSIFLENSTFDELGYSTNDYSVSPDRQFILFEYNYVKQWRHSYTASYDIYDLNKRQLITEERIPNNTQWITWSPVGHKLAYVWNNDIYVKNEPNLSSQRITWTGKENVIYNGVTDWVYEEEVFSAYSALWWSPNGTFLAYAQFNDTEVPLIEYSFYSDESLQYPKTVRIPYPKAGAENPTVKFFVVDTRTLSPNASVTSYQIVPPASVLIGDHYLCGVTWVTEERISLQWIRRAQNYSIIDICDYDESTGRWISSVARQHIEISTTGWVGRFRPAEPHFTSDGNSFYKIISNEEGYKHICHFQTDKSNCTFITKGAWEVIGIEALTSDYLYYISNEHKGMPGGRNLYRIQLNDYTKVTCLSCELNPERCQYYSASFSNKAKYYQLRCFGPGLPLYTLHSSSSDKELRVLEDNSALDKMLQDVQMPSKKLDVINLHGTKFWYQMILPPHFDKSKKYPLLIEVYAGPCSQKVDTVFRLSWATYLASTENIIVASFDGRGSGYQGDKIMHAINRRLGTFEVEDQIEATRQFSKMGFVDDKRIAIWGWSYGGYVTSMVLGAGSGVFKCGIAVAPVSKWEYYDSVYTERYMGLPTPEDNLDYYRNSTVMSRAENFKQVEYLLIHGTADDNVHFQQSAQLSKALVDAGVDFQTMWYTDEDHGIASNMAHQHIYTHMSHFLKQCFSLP
Experimental: Each solution mixture was adjusted with 100 mM sodium phosphate buffer to 100 μl in total and allowed to react at 37° C. A 10 μaliquot of the reaction solution was mixed with 15 μl of 10% trifluoroacetic acid prepared in advance in another Eppendorf tube.

CC[C@H](C)[C@H](NC(=O)[C@H](Cc1ccccc1)NC(=O)[C@H](CCC(=O)O)NC(=O)[C@H](CCCCN)NC(=O)[C@H](C)NC(=O)[C@H](C)NC(=O)[C@H](CCC(N)=O)NC(=O)CNC(=O)[C@H](CCC(=O)O)NC(=O)[C@H](CC(C)C)NC(=O)[C@H](Cc1ccc(O)cc1)NC(=O)[C@H](CSCC(=O)N[C@@H]1O[C@H](CO)[C@@H](O[C@@H]2O[C@H](CO)[C@@H](O[C@@H]3O[C@H](CO[C@H]4O[C@H](CO)[C@@H](O)[C@H](O)[C@@H]4O[C@@H]4O[C@H](CO)[C@@H](O[C@@H]5O[C@H](CO[C@]6(C(=O)O)C[C@H](O)[C@@H](NC(C)=O)[C@H]([C@H](O)[C@H](O)CO)O6)[C@H](O)[C@H](O)[C@H]5O)[C@H](O)[C@H]4NC(C)=O)[C@@H](O)[C@H](O[C@H]4O[C@H](CO)[C@@H](O)[C@H](O)[C@@H]4O[C@@H]4O[C@H](CO)[C@@H](O[C@@H]5O[C@H](CO[C@]6(C(=O)O)C[C@H](O)[C@@H](NC(C)=O)[C@H]([C@H](O)[C@H](O)CO)O6)[C@H](O)[C@H](O)[C@H]5O)[C@H](O)[C@H]4NC(C)=O)[C@@H]3O)[C@H](O)[C@H]2NC(C)=O)[C@H](O)[C@H]1NC(C)=O)NC(=O)[C@H](CO)NC(=O)[C@@H](NC(=O)[C@H](CC(=O)O)NC(=O)[C@H](CO)NC(=O)[C@@H](NC(=O)[C@H](Cc1ccccc1)NC(=O)[C@@H](NC(=O)CNC(=O)[C@H](CCC(=O)O)NC(=O)[C@H](C)NC(=O)[C@@H](N)Cc1c[nH]cn1)[C@@H](C)O)[C@@H](C)O)C(C)C)C(=O)N[C@@H](C)C(=O)N[C@@H](Cc1c[nH]c2ccccc12)C(=O)N[C@@H](CC(C)C)C(=O)N[C@H](C(=O)N[C@@H](CCCCN)C(=O)NCC(=O)N[C@@H](CSCC(=O)N[C@@H]1O[C@H](CO)[C@@H](O[C@@H]2O[C@H](CO)[C@@H](O[C@@H]3O[C@H](CO[C@H]4O[C@H](CO)[C@@H](O)[C@H](O)[C@@H]4O[C@@H]4O[C@H](CO)[C@@H](O[C@@H]5O[C@H](CO[C@]6(C(=O)O)C[C@H](O)[C@@H](NC(C)=O)[C@H]([C@H](O)[C@H](O)CO)O6)[C@H](O)[C@H](O)[C@H]5O)[C@H](O)[C@H]4NC(C)=O)[C@@H](O)[C@H](O[C@H]4O[C@H](CO)[C@@H](O)[C@H](O)[C@@H]4O[C@@H]4O[C@H](CO)[C@@H](O[C@@H]5O[C@H](CO[C@]6(C(=O)O)C[C@H](O)[C@@H](NC(C)=O)[C@H]([C@H](O)[C@H](O)CO)O6)[C@H](O)[C@H](O)[C@H]5O)[C@H](O)[C@H]4NC(C)=O)[C@@H]3O)[C@H](O)[C@H]2NC(C)=O)[C@H](O)[C@H]1NC(C)=O)C(=O)NCC(=O)O)C(C)C [Example 2, 18 and 36Cys-disialo oligosaccharide Chain Added GLP-1]
effect of suppressing rise in blood-sugar levels (C57BL/6JJcl mice; 0.9 nmol/kg intraperitoneal, compared with GLP-1 at 9 nmol/kg, FIG. 5): almost equal effect of suppressing rise in blood-sugar levels to that of GLP-1 | effect of suppressing rise in blood-sugar levels relative to that of GLP-1 (C57BL/6JJcl mice; OGTT, from doses giving almost equal effect (0.9 vs 9 nmol/kg)): about 10 times | Relative Resistance [1]: 128.6
